Measured values as given in patent publication US9157104B2, “Method to improve phosphate solubilization in plants” (Consiglio Nazionale delle Ricerche, priority 2009, dated 2015).

Key:
[1] = system: pho operon genes in S. meliloti cells; assay: Quantitative RT-PCR analysis of pho operon genes; assay type: cell-based; settings: compounds 0.5 mM, 3 hours
Protocol: FIG. S1. Quantitative RT-PCR analysis of pho operon genes in S. meliloti cells under P-sufficient conditions (13 mM K-phosphate). The relative expression level was >1 for genes more highly expressed in RD64 and in 1021 cells treated for 3 hours with 0.5 mM IAA, Ind, Trp, ICA and 2,4-D. The relative expression level was <1 for genes more highly expressed in 1021 cells (control). Error bars represent the standard deviation from three independent biological experiments.
FIG. 1. Quantitative RT-PCR analysis of pho operon genes expression in S. meliloti cells under P-starving conditions. The relative expression level was >1 for genes more highly expressed in RD64 and in 1021 cells treated for 3 hours with 0.5 mM IAA, Ind, Trp, ICA and 2,4-D. The relative expression level was <1 for genes more highly expressed in 1021 cells (control). Error bars represent the standard deviation from five independent biological experiments (p<0.05).
Total RNA from P-sufficient and P-starved cells was isolated as previously described (5). cDNA were synthesized with the StrataScript™ reverse transcription reagents (Stratagene) and random hexamers as primers. Quantitative PCR was performed with the Power SYBR PCR Master Mix (Applied Biosystems). Reactions were run on the iCycler iQ (Bio-Rad). The thermo cycling condition were: 15 min at 95° C., 40 cycles of denaturation at 95° C. for 20 s, annealing (20 s) and extension (35 s) at 72° C. Specific primer pairs, designed using the Primer3 software, are shown.
smc02641 and smc00128 were used as housekeeping genes for data normalization in the comparative Ct method as previously described (8). Phosphatase Activity

[2] = Soluble phosphate release into bacterial free medium containing 5% PR; settings: bacteria free media with addition of IAA (0.5 mM)
Description: FIG. 4. Changes in soluble phosphate release into the bacterial free medium containing 5% phosphate rock (PR) as P source (P-limiting conditions for bacteria growing in a minimal media with PR). […] The amounts of each added organic acids derived from the data obtained in HPLC analysis and were reported in the Material and Methods section. Data are the mean±SD of five independent biological experiments (p<0.006). The concentration of soluble phosphate was estimated using a modification of Fiske and Subarrow method as described by […] et al. (37). […] Bacterial free medium was also treated with 0.5 mM IAA solution. A media that simulates growth is a media without bacteria or their supernatant. The media comprises only RP and the organic acids used as purified powder commercially available (SIGMA), the organic acids concentration used are that produced by the bacteria when grown in a defined media (with IAA, or without, or from RFD64).

acid phosphatase = assay: Acid phosphatase activity under P-starved conditions; assay type: cell-based, S. meliloti; settings: phosphate starvation; vs 1021 cells; compounds 0.5 mM, 3 hours at 30° C.
S. meliloti 1021 = assay: Microarray gene expression of 1021 cells treated with 0.5 mM compound; settings: 1021 + 0.5 mM IAA vs untreated 1021; P-sufficient (13 mM);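 also: cells were harvested 3 h after the start of each treatment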
Protocol: For P starvation experiments, cells of 1021 wild-type and RD64 strains were grown at 30° C. to mid exponential phase (OD600=0.6) in RMM broth containing 1% (w/v) mannitol as carbon source and 13 mM P, washed with RMM containing 0 P, resuspended in the same medium and then divided into three cultures. No P (−P), 1.0 mM P (P-starved cells) or 13 mM P (+P cells also named P-sufficient cells) was added into the three cultures, respectively. The P-starved and P-sufficient 1021 wild type cells were treated for 3.0 hours with 0.5 mM IAA. […] To rule out that this bacteria could be partially starved for Trp, RD64 cells were also treated with 0.5 mM Trp and used for microarrays and RT-PCR analyses. […] After 3 hours of each treatment, cell batches were collected, freezed and stored at −80° C. for use in experiments.

S. meliloti cells = assay: Organic acids exuded by S. meliloti cells (HPLC, GC-MS); assay type: cell-based; settings: minimal medium containing 5% PR as the sole phosphate source; IAA 0.5 mM where added
Protocol: For phosphate solubilization experiments 5% Moroccan phosphate rock (PR) (Sigma-Aldrich, cat. No. 32) was used as P source. When 5% PR is used as P source to allow bacterial growth this is described as a P-limiting condition. At least five independent experiments were always performed.
The organic acids were determined by HPLC with a reverse-phase Hypersil GOLD C18 (100×4.6 mm) column (Thermo Electron Corporation). The operating conditions and quantification were previously described (20).
Organic acid fractions collected from HPLC were dried, derivatized to their tert-butyldimethylsilyl (tBDMS) derivatives and analysed on a Micromass GCT mass spectrometer (Waters corp, Manchester, UK) coupled to an Agilent 6890 Series gas chromatograph fitted with 7683 auto-sampler (Agilent Technologies, Palo Alto, Calif.) and ZB-5 ms (Phenomenex, Macclesfield, UK) caplillary column (30 m×0.25 mm I.D.×0.25 μm d.f. with 5 m Guardian). Samples were injected using splitless injection technique at 250° C. and a helium gas flow of 2.0 ml min^−1. The oven was set at 70° C. for 2 min, then ramped at 7° C. min^−1 to 350° C. and held for 5 min. The GC interface and source temperatures were set to 250° C. and EI^+ mass spectra were acquired at 70 eV from 0 to 47 min with an acquisition rate of 1 spectra/sec. Chromatographic peaks were identified either from existing mass spectral and retention time data from standards previously analysed at Rothamsted Research LTD (Harpenden Herts, UK) or from the NIST mass spectral database in conjunction with retention data obtained from the literature (30). Determination of the accurate mass, to within 5 ppm, of M^+, M-15^+, M-57^+ was used to verify analyte identifications. The chromatograms obtained for each sample were compared to the derivatization reagent blank.

With `O=C(O)Cc1c[nH]c2ccccc12` [IAA, indole-3-acetic acid] the “expression level of all five pho genes (RT-PCR)” value ([1]; P-starved conditions, vs control 1021) was “highly induced”, the “phoB regulatory gene expression (qRT-PCR)” value ([1]; P-sufficient (13 mM K-phosphate), vs untreated 1021 cells) was “down-regulated” and the “concentration of soluble P in bacteria free media” value [2] was “negligible”. For the same compound, the acid phosphatase activity (acid phosphatase) was “increase”, the “M (log2 ratio of intensities) Mc01302 rplP” value (S. meliloti 1021) was −1.862 and the “M (log2 ratio of intensities) SMa1118 hspC2” value (S. meliloti 1021) was 1.296. The “M (log2 ratio of intensities) SMb20893 gguB” value (S. meliloti 1021) was 1.754, the “M (log2 ratio of intensities) SMb20895 chvE” value (S. meliloti 1021) was 1.425 and the “M (log2 ratio of intensities) SMb20922 smb20922” value (S. meliloti 1021) was 1.711. The “M (log2 ratio of intensities) SMb21174 phoT” value (S. meliloti 1021) was −1.207, the “M (log2 ratio of intensities) SMb21177 phoC” value (S. meliloti 1021) was −0.7939 and the “M (log2 ratio of intensities) SMb21183 htpG” value (S. meliloti 1021) was 1.384. The “M (log2 ratio of intensities) SMb21197 oppB” value (S. meliloti 1021) was 1.111, the “M (log2 ratio of intensities) SMc00363 rpmI” value (S. meliloti 1021) was −0.9807 and the “M (log2 ratio of intensities) SMc00364 rplT” value (S. meliloti 1021) was −0.715. For the same compound, the “M (log2 ratio of intensities) SMc00568 rpsF” value (S. meliloti 1021) was −0.7616, the “M (log2 ratio of intensities) SMc01103 rbsK” value (S. meliloti 1021) was 1.2 and the “M (log2 ratio of intensities) SMc01169 ald” value (S. meliloti 1021) was 3.025. For the same compound, the “M (log2 ratio of intensities) SMc01291 rpmD” value (S. meliloti 1021) was −1.237, the “M (log2 ratio of intensities) SMc01295 rpsH” value (S. meliloti 1021) was −0.8996 and the “M (log2 ratio of intensities) SMc01296 rpsN” value (S. meliloti 1021) was −0.8326. The “M (log2 ratio of intensities) SMc01301 rpmC” value (S. meliloti 1021) was −1.273, the “M (log2 ratio of intensities) SMc01309 rplC” value (S. meliloti 1021) was −0.7247 and the “M (log2 ratio of intensities) SMc01319 rplJ” value (S. meliloti 1021) was −1.438. For the same compound, the “M (log2 ratio of intensities) SMc01628 smc01628” value (S. meliloti 1021) was 0.7123, the “M (log2 ratio of intensities) SMc02475 smc02475” value (S. meliloti 1021) was 0.7339 and the “M (log2 ratio of intensities) SMc02514 smc02514” value (S. meliloti 1021) was 1.764. The “M (log2 ratio of intensities) SMc02729 smc02729” value (S. meliloti 1021) was 0.8942, the “M (log2 ratio of intensities) SMc02786 smc02786” value (S. meliloti 1021) was 1.11 and the “M (log2 ratio of intensities) SMc03168 smc03168” value (S. meliloti 1021) was 1.165. For the same compound, the “M (log2 ratio of intensities) SMc04087 smc04087” value (S. meliloti 1021) was 1.593, the “Organic acid content, Fumarate” value (S. meliloti cells) was 1.7 ± 0.1 mg/L and the “Organic acid content, Malate” value (S. meliloti cells) was 86 ± 10 mg/L. For the same compound, the “Organic acid content, Succinate” value (S. meliloti cells) was 864 ± 79 mg/L.
